The values below come from patent US20250179061A1 (SIRONAX LTD., priority 2022, published 2025).

Molecules are shown by their SMILES. Like-named read-outs stand apart in the source and are kept apart here.

In this test the test system is HT-29 cells. Briefly: HT-29 necroptosis cell viability assay (TNF-α/SMAC mimetic/zVAD-FMK, CellTiter-Glo). Format: cell-based. As to conditions: read-out: Activity. Put shortly: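 HT-29 cells (~5,000/well, overnight) in FBS-free McCoy's 5A with TNF-α 10 ng/ml, SMAC mimetic 6 μM and zVAD-FMK 10 μM plus 10-point 1:3 compound titration, 20 h at 37°C. ATP measured by CellTiter-Glo luminescence; IC50 as geometric mean of duplicates.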

The mark [1] stands for this setting: Homo sapiens, HT-29 cells stimulated with TNF-α (10 ng/ml), SMAC mimetic (6 μM) and zVAD-FMK (10 μM), 20 hours, CellTiter-Glo ATP luminescence, geometric mean IC50 from 10 points.

Regarding `Cc1nc(C(N)=O)sc1Oc1ccc(-n2nc3n(c2=O)C(c2ccccc2)CC3F)cc1F` (stereo not drawn) [Example 80, 5-(2-fluoro-4-(7-fluoro-3-oxo-5-phenyl-3,5,6,7-tetrahydro-2H-pyrrolo[2,1-c][1,2,4]triazol-2-yl)phenoxy)-4-methylthiazole-2-carboxamide], for the setting “HT-29 cells stimulated with TNF-α (10 ng/ml), SMAC mimetic (6 μM) and zVAD-FMK (10 μM), 20 hours, CellTiter-Glo ATP luminescence, geometric mean IC50 from 10 points”, the IC50 is under 100 nM.
Turning to `Cc1nc(C(N)=O)sc1Oc1ccc(-n2nc3n(c2=O)C(c2ccccc2)CC3F)cc1F` (stereo not drawn) [Example 81, 5-(2-fluoro-4-(7-fluoro-3-oxo-5-phenyl-3,5,6,7-tetrahydro-2H-pyrrolo[2,1-c][1,2,4]triazol-2-yl)phenoxy)-4-methylthiazole-2-carboxamide], under setting [1], the IC50 was under 100 nM.
Consider `NC(=O)c1cnc(Oc2ccc(-n3ncn(Cc4c(F)cccc4F)c3=O)cc2)s1` [Example 82, 2-(4-(4-(2,6-difluorobenzyl)-5-oxo-4,5-dihydro-1H-1,2,4-triazol-1-yl)phenoxy)thiazole-5-carboxamide], for which, under setting [1], the IC50 lay in the range of 100 to 1000 nM.
Turning to `O=c1n(Cc2c(F)cccc2F)cnn1-c1ccc(Oc2nc3c(s2)CCCC3)cc1` [Example 83, 4-(2,6-difluorobenzyl)-2-(4-((4,5,6,7-tetrahydrobenzo[d]thiazol-2-yl)oxy)phenyl)-2,4-dihydro-3H-1,2,4-triazol-3-one], under setting [1], the IC50 fell in the range of 100 to 1000 nM.
For `CCOC1CN(c2ncc(Oc3ccc(-n4ncn(Cc5c(F)cccc5F)c4=O)cc3)s2)C1` [Example 84, 4-(2,6-difluorobenzyl)-2-(4-((2-(3-ethoxyazetidin-1-yl)thiazol-5-yl)oxy)phenyl)-2,4-dihydro-3H-1,2,4-triazol-3-one], the IC50 under setting [1] was under 100 nM.
On the same count and under the same terms, to `CCOC1CN(c2cc(Oc3ccc(-n4ncn(Cc5c(F)cccc5F)c4=O)cc3)c(C)s2)C1` [Example 85, 4-(2,6-difluorobenzyl)-2-(4-((5-(3-ethoxyazetidin-1-yl)-2-methylthiophen-3-yl)oxy)phenyl)-2,4-dihydro-3H-1,2,4-triazol-3-one] belongs over 10000 nM.
Still for that read-out and setting: to `Cc1nc(C#N)sc1Oc1ccc(-n2ncn(Cc3c(F)cccc3F)c2=O)cc1Cl` [Example 86, 5-(2-chloro-4-(4-(2,6-difluorobenzyl)-5-oxo-4,5-dihydro-1H-1,2,4-triazol-1-yl)phenoxy)-4-methylthiazole-2-carbonitrile] belongs under 100 nM; to `Cc1nc(C#N)sc1Oc1ccc(-n2ncn(Cc3c(F)cccc3F)c2=O)cc1` [Example 87, 5-(4-(4-(2,6-difluorobenzyl)-5-oxo-4,5-dihydro-1H-1,2,4-triazol-1-yl)phenoxy)-4-methylthiazole-2-carbonitrile], under 100 nM; to `Cc1nc(C(N)=O)sc1Oc1ccc(-n2ncn(Cc3c(F)cccc3F)c2=O)cc1Cl` [Example 88, 5-(2-chloro-4-(4-(2,6-difluorobenzyl)-5-oxo-4,5-dihydro-1H-1,2,4-triazol-1-yl)phenoxy)-4-methylthiazole-2-carboxamide], under 100 nM.
In the case of `CC(=O)Nc1nc(C)c(Oc2ccc(-n3ncn(Cc4c(F)cccc4F)c3=O)cc2F)s1` [Example 89, N-(5-(4-(4-(2,6-difluorobenzyl)-5-oxo-4,5-dihydro-1H-1,2,4-triazol-1-yl)-2-fluorophenoxy)-4-methylthiazol-2-yl)acetamide], under setting [1], the IC50 was under 100 nM.
The same measure, in the same setting: in the case of `Nc1ncc(Oc2ccc(-n3ncn(Cc4c(F)cccc4F)c3=O)cc2)s1` [Example 90, 2-(4-((2-aminothiazol-5-yl)oxy)phenyl)-4-(2,6-difluorobenzyl)-2,4-dihydro-3H-1,2,4-triazol-3-one] it was 100 to 1000 nM.
Take `Cc1nc(N)sc1Oc1ccc(-n2ncn(Cc3c(F)cccc3F)c2=O)cc1` [Example 91, 2-(4-((2-amino-4-methylthiazol-5-yl)oxy)phenyl)-4-(2,6-difluorobenzyl)-2,4-dihydro-3H-1,2,4-triazol-3-one]: under setting [1], the IC50 was under 100 nM.
On the same count and under the same terms, to `COC(=O)c1nc(Oc2ccc(-n3ncn(Cc4c(F)cccc4F)c3=O)cc2)sc1C` [Example 92, methyl 2-(4-(4-(2,6-difluorobenzyl)-5-oxo-4,5-dihydro-1H-1,2,4-triazol-1-yl)phenoxy)-5-methylthiazole-4-carboxylate] belongs 100 to 1000 nM; to `CCOC(=O)c1scnc1Oc1ccc(-n2ncn(Cc3c(F)cccc3F)c2=O)cc1F` [Example 93, ethyl 4-(4-(4-(2,6-difluorobenzyl)-5-oxo-4,5-dihydro-1H-1,2,4-triazol-1-yl)-2-fluorophenoxy)thiazole-5-carboxylate], 100 to 1000 nM; to `Cn1ncnc1Oc1ccc(-n2ncn(Cc3c(F)cccc3F)c2=O)cc1` [Example 94, 4-(2,6-difluorobenzyl)-2-(4-((1-methyl-1H-1,2,4-triazol-5-yl)oxy)phenyl)-2,4-dihydro-3H-1,2,4-triazol-3-one], 1000 to 10000 nM.
Consider `Cn1ncc([N+](=O)[O-])c1Oc1ccc(-n2ncn(Cc3c(F)cccc3F)c2=O)cc1` [Example 95, 4-(2,6-difluorobenzyl)-2-(4-((1-methyl-4-nitro-1H-pyrazol-5-yl)oxy)phenyl)-2,4-dihydro-3H-1,2,4-triazol-3-one], for which the IC50 under setting [1] lay within 100 to 1000 nM.
As to `O=c1n(Cc2c(F)cccc2F)cnn1-c1ccc(Oc2nc(CO)cs2)cc1` [Example 96, 4-(2,6-difluorobenzyl)-2-(4-((4-(hydroxymethyl)thiazol-2-yl)oxy)phenyl)-2,4-dihydro-3H-1,2,4-triazol-3-one], the IC50 under setting [1] lay within 100 to 1000 nM.
For the compound `Cc1nc(C)c(Oc2ccc(-n3ncn(Cc4c(F)cccc4F)c3=O)cc2)s1` [Example 97, 4-(2,6-difluorobenzyl)-2-(4-((2,4-dimethylthiazol-5-yl)oxy)phenyl)-2,4-dihydro-3H-1,2,4-triazol-3-one], the IC50 under setting [1] was under 100 nM.
Consider `Cc1csc(COc2ccc(-n3ncn(Cc4c(F)cccc4F)c3=O)cc2)n1` [Example 98, 4-(2,6-difluorobenzyl)-2-(4-((4-methylthiazol-2-yl)methoxy)phenyl)-2,4-dihydro-3H-1,2,4-triazol-3-one], for which the IC50 under setting [1] fell in the range of 100 to 1000 nM.
In the case of `Cc1ncc(Oc2ccc(-n3ncn(Cc4c(F)cccc4F)c3=O)cc2)s1` [Example 99, 4-(2,6-difluorobenzyl)-2-(4-((2-methylthiazol-5-yl)oxy)phenyl)-2,4-dihydro-3H-1,2,4-triazol-3-one], under setting [1], the IC50 was under 100 nM.
On the same count and under the same terms, to `Cc1nc(C(N)=O)c(Oc2ccc(-n3ncn(Cc4c(F)cccc4F)c3=O)cc2F)s1` [Example 100, 5-(4-(4-(2,6-difluorobenzyl)-5-oxo-4,5-dihydro-1H-1,2,4-triazol-1-yl)-2-fluorophenoxy)-2-methylthiazole-4-carboxamide] belongs 100 to 1000 nM.
For the compound `NC(=O)c1scnc1Oc1ccc(-n2ncn(Cc3c(F)cccc3F)c2=O)cc1F` [Example 101, 4-(4-(4-(2,6-difluorobenzyl)-5-oxo-4,5-dihydro-1H-1,2,4-triazol-1-yl)-2-fluorophenoxy)thiazole-5-carboxamide], the IC50 under setting [1] was in the range of 100 to 1000 nM.
With `Cc1nc(C(N)=O)cn1Cc1ccc(-n2nc3n(c2=O)C(c2ccccc2)CC3)cc1F` (stereo not drawn) [Example 102, 1-(2-fluoro-4-(3-oxo-5-phenyl-6,7-dihydro-3H-pyrrolo[2,1-c][1,2,4]triazol-2(5H)-yl)benzyl)-2-methyl-1H-imidazole-4-carboxamide], the IC50 under setting [1] was under 100 nM.
On to `Cc1nc(C(N)=O)cn1Cc1ccc(-n2ncn(Cc3c(F)cccc3F)c2=O)cc1F` [Example 103, 1-(4-(4-(2,6-difluorobenzyl)-5-oxo-4,5-dihydro-1H-1,2,4-triazol-1-yl)-2-fluorobenzyl)-2-methyl-1H-imidazole-4-carboxamide], for which, under setting [1], the IC50 lay in the range of 100 to 1000 nM.
On the same count and under the same terms, to `Cc1ncc(C(N)=O)n1Cc1ccc(-n2ncn(Cc3c(F)cccc3F)c2=O)cc1F` [Example 104, 1-(4-(4-(2,6-difluorobenzyl)-5-oxo-4,5-dihydro-1H-1,2,4-triazol-1-yl)-2-fluorobenzyl)-2-methyl-1H-imidazole-5-carboxamide] belongs under 100 nM.
On to `COC(=O)c1ncc(Oc2ccc(-n3ncn(Cc4c(F)cccc4F)c3=O)cc2F)s1` [Example 105, methyl 5-(4-(4-(2,6-difluorobenzyl)-5-oxo-4,5-dihydro-1H-1,2,4-triazol-1-yl)-2-fluorophenoxy)thiazole-2-carboxylate], for which the IC50 (Homo sapiens, HT-29, 20 h) was in the range of 100 to 1000 nM.
With `COC(=O)c1nc(C)c(Oc2ccc(-n3ncn(Cc4c(F)cccc4C#N)c3=O)cc2F)s1` [Example 106, methyl 5-(4-(4-(2-cyano-6-fluorobenzyl)-5-oxo-4,5-dihydro-1H-1,2,4-triazol-1-yl)-2-fluorophenoxy)-4-methylthiazole-2-carboxylate], the IC50 under setting [1] was under 100 nM.
Same read-out and setting: to `COC(=O)c1nc(C)c(Oc2ccc(-n3ncn(Cc4ccccc4F)c3=O)cc2F)s1` [Example 107, methyl 5-(2-fluoro-4-(4-(2-fluorobenzyl)-5-oxo-4,5-dihydro-1H-1,2,4-triazol-1-yl)phenoxy)-4-methylthiazole-2-carboxylate] belongs under 100 nM; to `COC(=O)c1nc(C)c(Oc2ccc(-n3ncn(Cc4cc(F)ccc4F)c3=O)cc2F)s1` [Example 108, methyl 5-(4-(4-(2,5-difluorobenzyl)-5-oxo-4,5-dihydro-1H-1,2,4-triazol-1-yl)-2-fluorophenoxy)-4-methylthiazole-2-carboxylate], under 100 nM; to `Cc1nc(C2(F)CC(N)C2)sc1Oc1ccc(-n2ncn(Cc3c(F)cccc3F)c2=O)cc1F` (stereo not drawn) [Example 109, 2-(4-((2-(3-amino-1-fluorocyclobutyl)-4-methylthiazol-5-yl)oxy)-3-fluorophenyl)-4-(2,6-difluorobenzyl)-2,4-dihydro-3H-1,2,4-triazol-3-one], under 100 nM.
